From patent US20220062233A1 (The Board of Trustees of the Leland Stanford Junior …, priority 2018, published 2022) come the findings set out here.

Like-named read-outs stand apart in the source and are kept apart here.

For one data set, the system named is M2-8 cells. Kind of data set: M2-8 Cell viability Assay. The data set is classed as cell-based. To be noted: at the concentration of 1000 nM.
For data set [1], the system named is Lymphoblastoid cells (GM14044). In words: LBC cell viability (Cell Titer-Glo). The data set is classed as cell-based, human. To be noted: at the concentration of IC20, 3-day compound treatment. As for the experimental part:
Cell viability was determined by Cell Titer-Glo reagent (Promega, PRG9243). After 3-day compound treatment, 15 μl of cell suspension was taken out from plate and incubated with 10 μl of CTG reagent. The values of reaction mixture were detected by Tecan.

Data set [2] deals with T1, interaction between Supt4h and NGN (subunit of Supt5h) (Homo sapiens, UniProt O00267+P63272).
T1 construct: expressed in transfected cells
In words: Split Gaussia luciferase complementation assay (M2-8 Luciferase). The data set is classed as cell-based. To be noted: M2-8 cells. Here is the method: A. Split Gaussia Luciferase Complementation Assay […]
i: pNBR-X1-Supt4-Gluc1 and pNEBR-X1-NGN-Gluc2
The HA-Supt4h and Flag-NGN fragments are amplified by PCR using the plasmid pHA-Supt4h-YC and pFlag-NGN-YN and sub-cloned individually into pcDNA3.1-Gluc1 and pcDNA3.1-Gluc2 (described in “A highly sensitive protein-protein interaction assay based on Gaussia luciferase” published at Nat Methods. 2006 December; 3(12):977-9. Epub 2006 Nov. 12). Then HA-Supt4h-Gluc1 and Flag-NGN-Gluc2 are amplified by PCR and inserted to pNEBR-X1-Hygro (New England BioLabs), which contain RheoSwitch responsive element under the control of RheoSwitch ligand. […]
ii: pNEBR-X1-Supt4h-G1-NGN-G2
PCR products containing the sequence from 5XRE to polyA in pNEBR-X1-NGN-G2 are inserted to pNEBR-X1-Supt4h-G1 at Pcil site to generate Supt4h-G1 and NGN-G2 bidirectional under their own RheoSwitch responsive element and polyA in the same plasmid. […]
b. Stable Cloned Cell Line i: 293-R1 is a cloned cell line which is engineered to constitutively express RSL1 receptor/activator by transfecting HEK 293 cells with pNEBR-R1 plasmid (New England BioLabs) and selected with blasticidin. […]
ii: M2-8 is a cloned 293-R1 cell which can inducibly express pNEBR-X1-Supt4h-G1-NGN-G2 by addition of RSL1. Two point mutations ([…] and M110I) are introduced to the GL1 and GL2 for better stability according to “A high-throughput cell-based Gaussia luciferase reporter assay for identifying modulators of fibulin-3 secretion” published in J Biomol Screen. 2013 July; 18(6):647-58. The cell line is selected by hygromycin. […]
c. Cell Culture and Transfection Condition
All the HEK-293 cells and derivative clones are maintained in DMEM containing 10% FBS plus corresponding antibiotics (250 μg/ml hygromycin B, 10 μg/ml blasticidin or both) at 37° C., 5% CO2. All the transfections are done by using Lipofectamine 2000 (Invitrogen) according to the manufacturer's instructions. […]
d. Bioluminescence Assay from Cell Lysates
Plasmids harboring the Gluc1 and Gluc2 are co-transfected in a 1:1 ratio into 293-R1 cells plated on tissue culture treated 24-well plates using Lipofectamine 2000 according to the manufacturer's instructions. For stable M2-8 cells, the cells are directly plated into 96-well or 384-well white plates. Twenty-four hours later, RheoSwitch ligand with or without test compound is added to the cells for induction/drug treatment. After 24 hr, the cells are washed with PBS and the plate was stored at −20° C. overnight. Lysis buffer [30 mM Tris-HCl (pH 8.0) 5 mM NaCl, 0.1% Triton X-100] with 10 μg/ml native coelenterazine (Nanolight Technology) is then added to the cells at room temperature for one hour in the dark. After shaking for about 1 min, 40 μl of cell lysate are transferred to a white 96-well plate. For M2-8 in white micro plate, no transfer is needed. Signal intensities (integrated 100 ms) were read on Tecan Infinite M200 or M1000.
The split Gaussia luciferase complementation assay measures the interaction between Sup4h and NGN. NGN is the subunit of Supt5h that binds to Supt4h.

A further data set concerns wild-type HTT. In words: Wild-type HTT assay in lymphoblastoid cells (LBC), Western blot. The data set is classed as cell-based, human. As for the experimental part: (§1) B. Mutant and Wild-Type HTT Assay in Lymphoblastoid Cells (LBC)
(§2) a. Cell Culturing and Compound Treatment
(§3) Lymphoblastoid cells derived from a Huntington's disease patient with 250 CAG repeats in the mutant HTT allele (GM14044 from Coriell Institute) were cultured in RPMI 1640 (Corning Cellgro, 10-040-CV) containing fetal bovine serum (Atlanta Biologicals, S11150). 4×10^5 cells were seeded on a 24-well plate and incubated with testing compound for 3 days. The cell suspension was then transferred to a 1.5 ml Eppendorf tube. Cells were collected by centrifugation and washed once with PBS. After all liquid was removed, the cell pellet was placed at −80° C. for at least 10 minutes. Lysis buffer [30 mM Tris-HCl (pH 8.0), 5 mM NaCl, 0.1% Triton X-100] with the proteinase inhibitor cocktail (P8340 from Sigma-Aldrich) was then added to the cells. Following centrifugation (14 k rpm for 15 min at 4° C.), the supernatant was collected. The protein concentrations were determined by BCA assay (Pierce, ThermoFisher).
(§4) Equal amounts of protein were loaded onto 4-12% gel (Invitrogen, WG1403A). After electrophoresis, the gels were transferred to nitrocellulose membranes by wet transfer at 72V for 3 hrs. […] The protein levels of mutant HTT, wild-type HTT, TBP, and tubulin were determined by immunoblotting with anti-polyQ specific antibody (clone MW1), anti-Huntingtin antibody (Abcam, ab45169), anti-TBP antibody (Sigma, T1827) and anti-alpha tubulin antibody (Sigma, T9026). Blots were imaged on a Li-Cor Odyssey infrared imager. The band intensities were determined by Li-Cor Odyssey software.
(In western blotting, separated proteins are transferred to a membrane and probed.)

In a further data set the test system is mutant HTT. Kind of data set: Mutant HTT assay in lymphoblastoid cells (LBC), Western blot. To be noted: read-out: LBC IC20 (nM) mHTT, 3 days compound treatment. The class given is cell-based, human. Here is the method: as §1, §2, §3, §4
Setting [3] is: 3 days compound treatment, read-out: LBC IC20 (nM) wtHTT.

On to `Brc1ccc2[nH]c3c(c2c1)CCC[C@H]3NCc1cccc2ccccc12` [Compound 19, (R)-6-bromo-N-(naphthalen-1-ylmethyl)-2,3,4,9-tetrahydro-1H-carbazol-1-amine], for which, in the data set with M2-8 cells, the “M2-8 Cell viability” value is listed as “+ (cell viability is greater than 50% at the concentration of 1000 nM)”. The “LBC viability at IC20” value in data set [1] is recorded as “* (cell viability is greater than 60% at the concentration of IC20)”. Moreover, the IC50 – broadly, the concentration that gives 50% inhibition – in data set [2] is ≤ 100 nM. The IC20 (in general, the point of the concentration-response curve where the effect stands at 20%) with wild-type HTT (setting [3]) is > 1000 nM; with mutant HTT, 101 to 300 nM.
For `Nc1ccc(CN[C@@H]2CCCc3c2[nH]c2ccc(Br)cc32)cc1` [Compound 21, (R)—N-(4-aminobenzyl)-6-bromo-2,3,4,9-tetrahydro-1H-carbazol-1-amine], in that order: “+ (cell viability is greater than 50% at the concentration of 1000 nM)”, “* (cell viability is greater than 60% at the concentration of IC20)”, ≤ 100 nM, > 1000 nM and 101 to 300 nM.
For `COc1cccc(CN[C@@H]2CCCc3c2[nH]c2ccc(Br)cc32)c1` [Compound 24, (R)-6-bromo-N-(3-methoxybenzyl)-2,3,4,9-tetrahydro-1H-carbazol-1-amine], in that order: “+ (cell viability is greater than 50% at the concentration of 1000 nM)”, “* (cell viability is greater than 60% at the concentration of IC20)”, ≤ 100 nM, > 1000 nM and 101 to 300 nM.
For the molecule `COc1ccc(CN[C@@H]2CCCc3c2[nH]c2ccc(Br)cc32)cc1` [Compound 25, (R)-6-bromo-N-(4-methoxybenzyl)-2,3,4,9-tetrahydro-1H-carbazol-1-amine], the “M2-8 Cell viability” value in the data set with M2-8 cells was “+ (cell viability is greater than 50% at the concentration of 1000 nM)”. Moreover, the “LBC viability at IC20” value in data set [1] is on record as “* (cell viability is greater than 60% at the concentration of IC20)”. Moreover, the IC50 in data set [2] was 101 to 300 nM. The concentration for an effect of 20% (IC20) in the data set with wild-type HTT (setting [3]) is > 1000 nM; with mutant HTT, 301 to 1000 nM.
Turning to `N#Cc1ccc(CN[C@@H]2CCCc3c2[nH]c2ccc(Br)cc32)cc1` [Compound 26, (R)-4-(((6-bromo-2,3,4,9-tetrahydro-1H-carbazol-1-yl)amino)methyl)benzonitrile], the “M2-8 Cell viability” value in the data set with M2-8 cells was “+ (cell viability is greater than 50% at the concentration of 1000 nM)”. The “LBC viability at IC20” value in data set [1] is recorded as “* (cell viability is greater than 60% at the concentration of IC20)”. This molecule returned an IC50 in data set [2] of 101 to 300 nM. Further, the IC20 in the data set on wild-type HTT (read-out: LBC IC20 (nM) wtHTT, 3 days compound treatment) was > 1000 nM; in the data set with mutant HTT, 101 to 300 nM.
Regarding `COCc1ccc(CN[C@@H]2CCCc3c2[nH]c2ccc(Br)cc32)cc1` [Compound 27, (R)-6-bromo-N-(4-(methoxymethyl)benzyl)-2,3,4,9-tetrahydro-1H-carbazol-1-amine], in the data set on M2-8 cells, the “M2-8 Cell viability” value is “+ (cell viability is greater than 50% at the concentration of 1000 nM)”. Moreover, the “LBC viability at IC20” value in data set [1] is recorded as “* (cell viability is greater than 60% at the concentration of IC20)”. Further, in data set [2], the IC50 was ≤ 100 nM. The results for the IC20 with wild-type HTT (setting [3]) and in the data set on mutant HTT were > 1000 nM and 101 to 300 nM, respectively.
On to `CC(C)(OCCO)c1ccc(CN[C@@H]2CCCc3c2[nH]c2ccc(Br)cc32)cc1` [Compound 56, (R)-2-((2-(4-(((6-bromo-2,3,4,9-tetrahydro-1H-carbazol-1-yl)amino)methyl)phenyl)propan-2-yl)oxy)ethan-1-ol], for which the “M2-8 Cell viability” value in the data set on M2-8 cells is given as “+ (cell viability is greater than 50% at the concentration of 1000 nM)”. Moreover, the IC50 in data set [2] was ≤ 100 nM.
On the same counts, the results for `OCc1cccc(CN[C@@H]2CCCc3c2[nH]c2ccc(Br)cc32)c1` [Compound 57, (R)-(3-(((6-bromo-2,3,4,9-tetrahydro-1H-carbazol-1-yl)amino)methyl)phenyl)methanol] are “+ (cell viability is greater than 50% at the concentration of 1000 nM)” and ≤ 100 nM.
Take `COCC(N[C@@H]1CCCc2c1[nH]c1ccc(Br)cc21)c1ccc(CN2CCOCC2)cc1` (stereo partly shown) [Compound 61]: the “M2-8 Cell viability” value with M2-8 cells is listed as “+ (cell viability is greater than 50% at the concentration of 1000 nM)”. The molecule also had an IC50 in data set [2] of 101 to 300 nM.
In the case of `COCC(N[C@@H]1CCCc2c1[nH]c1ccc(Br)cc21)c1ccc(CN2CCN(C(C)=O)CC2)cc1` (stereo partly shown) [Compound 62], in the data set on M2-8 cells, the “M2-8 Cell viability” value is reported as “+ (cell viability is greater than 50% at the concentration of 1000 nM)”. Moreover, in data set [2], the IC50 was in the range of 101 to 300 nM.
For `OCCOCc1ccc(CN[C@@H]2CCCc3c2[nH]c2ccc(Br)nc32)cc1` [Compound 64], in that order: “+ (cell viability is greater than 50% at the concentration of 1000 nM)” and 101 to 300 nM.
For `OCc1ccc(CN[C@@H]2CCCc3c2[nH]c2ccc(Br)nc32)s1` [Compound 67], in that order: “+ (cell viability is greater than 50% at the concentration of 1000 nM)” and ≤ 100 nM.
On the same counts, the results for `Brc1ccc2[nH]c3c(c2c1)CCC[C@H]3NCc1ccc(CN2CCOCC2)cc1` [Compound 72] are “+ (cell viability is greater than 50% at the concentration of 1000 nM)” and ≤ 100 nM.
As for `CC(=O)N1CCN(Cc2ccc(CN[C@@H]3CCCc4c3[nH]c3ccc(Br)cc43)cc2)CC1` [Compound 73], in the data set with M2-8 cells, the “M2-8 Cell viability” value is on record as “+ (cell viability is greater than 50% at the concentration of 1000 nM)”. In data set [2], this molecule showed an IC50 of 101 to 300 nM.
